In one assay the target is EGFR (Homo sapiens (Human), UniProt P00533). The assay can be described thus: Kinase inhibition assay (Caliper, FAM-labeled peptide substrate). The assay is classed as biochemical. As to the method: (§1) 2.5 times of the kinase (VEGFR2 or EGFR or FYN) buffer solution was added to the compound diluted in equal concentration in the 384-well plate and incubated at 22-27° C. for 10 minutes, then 2.5 times of the FAM-labeled peptide substrate and ATP buffer solution were added therein and incubated at 28° C., and then the stop buffer solution was added to stop the reaction. The data was read by Caliper and the following formula was used to calculate the IC50 inhibition: Percent inhibition=(max-conversion)/(max-min)*100. Staurosporine was used as a control. In kinase inhibition assays, some of the compounds of the present invention are effective in inhibiting VEGFR2/FYN/EGFR, so they have the potential for treating or preventing cancer or central nervous system diseases (Table 1).
Chain of EGFR (P00533 25-1210, species assumed): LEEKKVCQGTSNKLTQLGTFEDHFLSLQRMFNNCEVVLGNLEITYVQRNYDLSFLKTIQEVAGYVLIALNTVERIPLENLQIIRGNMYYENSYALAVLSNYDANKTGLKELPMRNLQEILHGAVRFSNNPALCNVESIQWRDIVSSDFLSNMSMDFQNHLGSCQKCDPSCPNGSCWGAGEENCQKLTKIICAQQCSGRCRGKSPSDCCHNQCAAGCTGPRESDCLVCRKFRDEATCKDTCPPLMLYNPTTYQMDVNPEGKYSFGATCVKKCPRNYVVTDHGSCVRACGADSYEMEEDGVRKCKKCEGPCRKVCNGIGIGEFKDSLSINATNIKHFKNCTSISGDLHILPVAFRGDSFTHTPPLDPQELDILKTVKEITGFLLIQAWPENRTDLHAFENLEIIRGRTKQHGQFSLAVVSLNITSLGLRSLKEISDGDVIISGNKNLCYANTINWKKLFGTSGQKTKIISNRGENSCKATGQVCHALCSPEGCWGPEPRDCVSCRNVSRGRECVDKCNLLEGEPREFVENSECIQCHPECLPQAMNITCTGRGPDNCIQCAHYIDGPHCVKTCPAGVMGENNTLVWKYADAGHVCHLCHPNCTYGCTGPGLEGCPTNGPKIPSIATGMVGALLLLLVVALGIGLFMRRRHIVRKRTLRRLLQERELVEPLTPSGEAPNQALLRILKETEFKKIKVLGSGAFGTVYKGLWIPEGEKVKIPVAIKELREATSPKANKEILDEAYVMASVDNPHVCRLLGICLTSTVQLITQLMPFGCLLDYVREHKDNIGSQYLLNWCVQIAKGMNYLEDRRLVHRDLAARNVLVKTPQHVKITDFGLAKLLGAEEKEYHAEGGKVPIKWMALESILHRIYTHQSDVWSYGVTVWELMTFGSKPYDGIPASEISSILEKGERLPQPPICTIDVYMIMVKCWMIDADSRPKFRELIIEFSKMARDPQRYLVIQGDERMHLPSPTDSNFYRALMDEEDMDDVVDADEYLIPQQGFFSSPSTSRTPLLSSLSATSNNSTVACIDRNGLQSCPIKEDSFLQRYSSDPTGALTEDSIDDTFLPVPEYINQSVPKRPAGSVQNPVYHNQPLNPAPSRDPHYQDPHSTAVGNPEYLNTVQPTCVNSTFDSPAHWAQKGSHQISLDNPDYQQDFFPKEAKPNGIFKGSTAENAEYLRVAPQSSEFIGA

Another assay has as its system PC-9Luc tumor cells. The experiment in a line: PC-9Luc tumor cell mouse intracranial animal model. Format: in vivo. The note with it: monotherapy, 3 mg/kg, oral, twice a day, three weeks; vs control group. How it is done:
(§2) In the efficacy experiment of SKOV3 tumor cell mouse subcutaneous animal model (FIG. 1), the drug was administered on the 30th day after the tumor cells were planted and the drug administration was lasted for four weeks. […] In the efficacy experiment of the PC-9Luc tumor cell mouse intracranial animal model (FIG. 2), the drug was administered on the 10th day after the tumor cells were planted and the drug administration was lasted for three weeks. The second group of compound 1 was used as monotherapy, 10 mg/kg, oral dosing, twice a day; the third group of EGFR inhibitors (chemical name: (R)-6-[(3,3-difluoro-1-methylpiperidin-4-yl)oxy]-nitrogen-(3-ethynyl-2-fluorophenyl)-7-methoxyquinazolin-4-amine) was used as monotherapy, 3 mg/kg, oral dosing, twice a day; the fourth group of compound 1 combined with EGFR inhibitors.

In another assay the target is VEGFR2 (Homo sapiens (Human), UniProt P35968). The assay can be described thus: Kinase inhibition assay (Caliper, FAM-labeled peptide substrate). Format: biochemical. How it is done: as §1
Chain of VEGFR2 (P35968 20-1356): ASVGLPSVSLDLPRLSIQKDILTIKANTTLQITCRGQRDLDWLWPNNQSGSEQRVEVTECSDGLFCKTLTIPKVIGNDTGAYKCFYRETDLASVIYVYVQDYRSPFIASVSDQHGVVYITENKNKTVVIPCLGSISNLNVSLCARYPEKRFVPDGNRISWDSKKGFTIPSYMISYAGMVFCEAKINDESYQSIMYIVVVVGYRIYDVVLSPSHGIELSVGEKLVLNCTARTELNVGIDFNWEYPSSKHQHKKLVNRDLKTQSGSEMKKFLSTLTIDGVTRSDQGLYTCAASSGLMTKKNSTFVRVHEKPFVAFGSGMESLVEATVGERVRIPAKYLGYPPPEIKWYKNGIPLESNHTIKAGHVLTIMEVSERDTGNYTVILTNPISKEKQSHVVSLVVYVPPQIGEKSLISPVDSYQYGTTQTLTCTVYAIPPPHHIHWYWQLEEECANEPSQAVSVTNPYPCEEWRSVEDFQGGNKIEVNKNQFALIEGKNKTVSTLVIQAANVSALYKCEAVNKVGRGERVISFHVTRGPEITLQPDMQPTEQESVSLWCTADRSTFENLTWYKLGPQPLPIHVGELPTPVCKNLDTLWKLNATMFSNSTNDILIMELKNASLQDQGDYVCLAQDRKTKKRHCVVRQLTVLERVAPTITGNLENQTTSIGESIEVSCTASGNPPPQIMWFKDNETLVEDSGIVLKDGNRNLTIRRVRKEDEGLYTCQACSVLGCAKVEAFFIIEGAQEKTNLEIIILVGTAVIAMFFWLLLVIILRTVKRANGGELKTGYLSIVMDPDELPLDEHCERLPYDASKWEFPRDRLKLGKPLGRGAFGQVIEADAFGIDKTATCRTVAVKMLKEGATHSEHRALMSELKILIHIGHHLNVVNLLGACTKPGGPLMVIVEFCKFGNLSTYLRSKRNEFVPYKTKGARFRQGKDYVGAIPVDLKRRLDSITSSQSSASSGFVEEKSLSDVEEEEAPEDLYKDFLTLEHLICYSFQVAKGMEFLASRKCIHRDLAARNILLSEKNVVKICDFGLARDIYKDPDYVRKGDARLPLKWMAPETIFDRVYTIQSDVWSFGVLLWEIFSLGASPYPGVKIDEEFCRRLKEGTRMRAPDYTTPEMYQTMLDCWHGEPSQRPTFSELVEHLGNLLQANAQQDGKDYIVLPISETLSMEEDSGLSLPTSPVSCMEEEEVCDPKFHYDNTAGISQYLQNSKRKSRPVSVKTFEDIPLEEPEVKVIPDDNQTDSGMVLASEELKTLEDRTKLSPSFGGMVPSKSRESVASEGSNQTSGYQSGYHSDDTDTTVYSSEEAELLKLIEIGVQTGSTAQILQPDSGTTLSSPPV
The test system of the next assay is SKOV3 tumor cells. The assay can be described thus: SKOV3 tumor cell mouse subcutaneous animal model. The note with it: monotherapy, oral, twice a day, four weeks, vs control group. The assay is classed as in vivo. As to the method:
as §2

pIC50: −log10 of the molar value.

Experimental findings from US11713306B2, “5-substituted difluoropiperidine compounds with blood-brain barrier penetrable capability” (Wayshine Biopharm Holding Limited, priority 2018, dated 2023) are described below.

As a reminder, the pIC50 is the negative decadic logarithm of the IC50, by convention in mol/L. Read a low pIC50 as a high IC50.

On EGFR, `C#Cc1c(F)ccc(Nc2ncnc3cc(OC)cc(O[C@@H]4CCN(C)CC4(F)F)c23)c1F` [Compound 32, (R)-5-((3,3-difluoro-1-methylpiperidin-4-yl)oxy)-N-(3-ethynyl-2,4-difluorophenyl)-7-methoxyquinazolin-4-amine] had a pIC50 of over 8.00. On the same count and under the same terms, the figure for `C#Cc1c(F)ccc(Nc2ncnc3cc(OC)cc(OC4CCN(C)CC4(F)F)c23)c1F` (racemic) [Compound 16, (R/S)-5-((3,3-difluoro-1-methylpiperidin-4-yl)oxy)-N-(3-ethynyl-2,4-difluorophenyl)-7-methoxyquinazolin-4-amine] is over 8.00; for `C#Cc1c(F)ccc(Nc2ncnc3cc(OC)cc(O[C@H]4CCN(C)CC4(F)F)c23)c1F` [Compound 48, (S)-5-((3,3-difluoro-1-methylpiperidin-4-yl)oxy)-N-(3-ethynyl-2,4-difluorophenyl)-7-methoxyquinazolin-4-amine] it is over 8.00; for `C#Cc1cccc(Nc2ncnc3cc(OC)cc(OC4CCN(C)CC4(F)F)c23)c1F` (racemic) [Compound 11, (R/S)-5-((3,3-difluoro-1-methylpiperidin-4-yl)oxy)-N-(3-ethynyl-2-fluorophenyl)-7-methoxyquinazolin-4-amine] it is over 8.00. Turning to `C#Cc1cccc(Nc2ncnc3cc(OC)c(O[C@@H]4CCN(C)CC4(F)F)cc23)c1F` [EGFR inhibitor, (R)-6-[(3,3-difluoro-1-methylpiperidin-4-yl)oxy]-nitrogen-(3-ethynyl-2-fluorophenyl)-7-methoxyquinazolin-4-amine], in the assay on PC-9Luc tumor cells, the “inhibition of intracranial tumor growth” value is “good inhibition on intracranial tumor growth”. For `C#Cc1cccc(Nc2ncnc3cc(OC)cc(O[C@@H]4CCN(C)CC4(F)F)c23)c1F` [Compound 27, (R)-5-((3,3-difluoro-1-methylpiperidin-4-yl)oxy)-N-(3-ethynyl-2-fluorophenyl)-7-methoxyquinazolin-4-amine], the pIC50 against EGFR is over 8.00. On to `COc1cc(OC2CCN(C)CC2(F)F)c2c(Oc3ccc4[nH]c(C)cc4c3F)ncnc2c1` (racemic) [Compound 1, (R/S)-5-((3,3-difluoro-1-methylpiperidin-4-yl)oxy)-4-((4-fluoro-2-methyl-1H-indole-5-yl)oxy)-7-methoxyquinazoline], for which, at VEGFR2, the pIC50 is over 8.00. The “inhibition of tumor growth” value in the assay on SKOV3 tumor cells (10 mg/kg) and in the assay on SKOV3 tumor cells (20 mg/kg) was “good inhibition of tumor growth” each time. The compound `C#Cc1cccc(Nc2ncnc3cc(OC)cc(O[C@H]4CCN(C)CC4(F)F)c23)c1F` (single isomer, unassigned) [Compound 43] showed a pIC50 against EGFR of over 8.00. On VEGFR2, `COc1cc(OC2CCN(C)CC2(F)F)c2c(Oc3cc(F)c4[nH]c(C)cc4c3F)ncnc2c1` (racemic) [Compound 3, (R/S)-5-((3,3-difluoro-1-methylpiperidin-4-yl)oxy)-4-((4,7-difluoro-2-methyl-1H-indol-5-yl)oxy)-7-methoxyquinazoline] showed a pIC50 of over 8.00.
